# Measured values taken from patent US20260256822A1, “ENTRY-MODULATING AGENTS AND USES THEREFOR” (priority 2022, published 2026).
# “And” between values parts separate entries of the source, which are not always exact repeats. Equal entries are not always repeated. Structures can show the parent of a compound that is named as a salt. Where two headings read alike, the source gives them in different places.
# Key:
# [1] = target: T1, PfCyRPA (Plasmodium falciparum, UniProt Q8IFM8); assay: biochemical
# Target sequence in this assay (Q8IFM8 29-362): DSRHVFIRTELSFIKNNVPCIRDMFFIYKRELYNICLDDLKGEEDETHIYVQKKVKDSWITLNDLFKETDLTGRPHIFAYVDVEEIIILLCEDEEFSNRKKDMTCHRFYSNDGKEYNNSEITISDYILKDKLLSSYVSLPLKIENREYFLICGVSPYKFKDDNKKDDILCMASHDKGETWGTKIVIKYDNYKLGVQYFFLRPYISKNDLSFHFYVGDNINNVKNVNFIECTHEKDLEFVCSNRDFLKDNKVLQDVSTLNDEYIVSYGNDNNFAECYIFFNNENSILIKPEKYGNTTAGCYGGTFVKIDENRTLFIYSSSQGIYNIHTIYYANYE
# [2] = system: P. falciparum 3D7 clone; assay: In vitro blood stage parasite growth inhibition assay, [3H]-hypoxanthine incorporation, human red blood cells; format: cell-based, Plasmodium falciparum
# [3] = target: T1, PfCyRPA; format: binding; settings: compound injected first, then 2-6SLN; both at 1 μM
# Target sequence in this assay (Q8IFM8 29-362): as above
# [4] = target: T1, PfCyRPA; settings: for affinity of interaction with PfCyRPA: SPR
# Target sequence in this assay (Q8IFM8 29-362): as above
# [5] = target: PvCyRPA (Plasmodium vivax, UniProt A5K678, A187P/D259E/E126K/E159D/E86Q/G127E/G69A/H95N/K131E/K185E/K93E/Q142K/R122K/T90K); format: binding; settings: Table 12, PvCyRPA
# [6] = target: T2, New Delhi metallo-beta-lactamase 2 (NDM2) (Klebsiella pneumoniae, UniProt C7C422, P28A); assay: biochemical
# T2 sequence (C7C422 29-270 P28A (numbered from the first residue shown)): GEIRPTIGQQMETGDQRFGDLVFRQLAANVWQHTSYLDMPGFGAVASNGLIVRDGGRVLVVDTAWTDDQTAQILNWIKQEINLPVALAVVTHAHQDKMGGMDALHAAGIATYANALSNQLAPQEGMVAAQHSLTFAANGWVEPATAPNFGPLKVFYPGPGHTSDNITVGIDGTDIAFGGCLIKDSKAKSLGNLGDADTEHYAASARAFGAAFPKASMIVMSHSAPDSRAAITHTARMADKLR
# [7] = target: T1, PfCyRPA; settings: SPR
# Target sequence in this assay (Q8IFM8 26-362): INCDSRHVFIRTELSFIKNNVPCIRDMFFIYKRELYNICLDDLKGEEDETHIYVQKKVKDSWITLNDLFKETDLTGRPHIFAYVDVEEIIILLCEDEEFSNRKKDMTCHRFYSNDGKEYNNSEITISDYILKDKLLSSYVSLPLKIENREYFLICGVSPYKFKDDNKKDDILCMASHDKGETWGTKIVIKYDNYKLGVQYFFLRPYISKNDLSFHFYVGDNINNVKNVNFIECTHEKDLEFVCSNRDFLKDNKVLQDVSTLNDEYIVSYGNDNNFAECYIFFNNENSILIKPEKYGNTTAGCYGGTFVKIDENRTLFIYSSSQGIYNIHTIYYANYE
# [8] = target: T2, New Delhi metallo-beta-lactamase 2 (NDM2); settings: read-out: NDM2 KD; Table 9
# [9] = for Serum concentration of zinc pyrithione: human
# Procedure: Participants were instructed to completely wet hair, measure out 20 mL of anti-dandruff shampoo using a measuring cup provided, pour shampoo onto the scalp and massage shampoo into the scalp, leave shampoo on for 5-10 minutes using the timer provided then completely rinse off shampoo. Blood and urine samples were also collected on day 3 (two days of shampoo use), day 4 (three days of shampoo use), day 5 (day after shampoo use stops) and day 10 (five days after shampoo use has stopped). Serum was separated from blood collected in SST II Advance serum separation tubes (BD) according to the manufacturer's instructions. Sera and urine were batched and stored at −80° C. within 4 hours of collection.
# (§1) Standard curves were run across the following concentrations: • ZnPT—0.61 nM to 10 μM • PT—61 nM to 1 mM • Zinc—0.61 μM to 10 mM
# [10] = mice, 7 days post infection
# Procedure: To determine the level of ZnPT in serum a methodology using two ZnPT binding proteins was developed.
# as §1
# 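Wherever Serum concentration of zinc pyrithione is given: human volunteers used 1% ZPT shampoo twice daily for three days from day 2, serum sampled on days 1 (pre-use), 3, 4, 5 and 10.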
# 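Wherever day of the highest serum concentration of ZnPT is given: human volunteers used 1% ZPT shampoo twice daily for three days from day 2, serum sampled on days 1 (pre-use), 3, 4, 5 and 10.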
compound,measurement,setting,value
CCC(C)[C@H]1O[C@]2(CC[C@@H]1C)C[C@@H]1C[C@@H](C/C=C(\C)[C@@H](O[C@H]3C[C@H](OC)[C@@H](O[C@H]4C[C@@H](OC)[C@H](O)[C@@H](C)O4)[C@H](C)O3)[C@@H](C)/C=C/C=C3\CO[C@@H]4[C@H](O)C(C)=C[C@@H](C(=O)O1)[C@]34O)O2 (some centres unmarked) [Ivermectin],Kd,[1],0.0932 ± 0.014 µM
same,EC50,"[2]; Plasmodium falciparum, 3D7, Erythrocyte, human RBC, Example 6",0.534 µg/mL
same,concentration that completely inhibits P. falciparum infection of human RBCs,[2]; human RBC,2000 ng/mL and 2.29 μM
same,EC50,"[2]; read-out: EC50 in RBC infection, Table 7, human RBC, P. falciparum 3D7",0.61 µM
same,Blocking of 2-6SLN binding,[3],67.3% ± 4.9
same,affinity of interaction with PfCyRPA,[4],high affinity interaction
Abamectin,EC50 in RBC infection,"[2]; Table 7, human RBC, P. falciparum 3D7",0.888 µg/mL
same,EC50,"[2]; Table 7, human RBC, P. falciparum 3D7, read-out: EC50 in RBC infection",1 µM
same,concentration that completely inhibits P. falciparum infection of human RBCs,[2]; human RBC,4000 ng/mL and 4.50 μM
same,Kd,[5],1.14 ± 0.23 µM
same,Blocking of 2-6SLN binding,[3],91.4% ± 6.8
same,Kd,[4],0.0191 ± 0.00117 µM
O=C1CC2(CCCC2)CC(=O)N1CCCCN1CCN(c2ncccn2)CC1 [Buspirone hydrochloride],Kd,[1],0.0336 ± 0.00431 µM
same,Blocking of 2-6SLN binding,[3],77.4% ± 8.2
On1ccccc1=S [1-Hydroxy-2(1H)-pyridinethione],Kd,[1],169 µM
same,Kd,[6],894 µM
CO/N=C1\C[C@]2(C[C@@H]3C[C@@H](C/C=C(\C)C[C@@H](C)/C=C/C=C4\CO[C@@H]5[C@H](O)C(C)=C[C@@H](C(=O)O3)[C@]45O)O2)O[C@H](/C(C)=C/C(C)C)[C@H]1C [Moxidectin],Kd,[1],13.4 ± 0.521 µM
CO[C@H]1C[C@H](O[C@H]2[C@H](C)O[C@@H](O[C@@H]3/C(C)=C/C[C@@H]4C[C@@H](C[C@]5(C=C[C@H](C)[C@@H](C6CCCCC6)O5)O4)OC(=O)[C@@H]4C=C(C)[C@@H](O)[C@H]5OC/C(=C\C=C\[C@@H]3C)[C@]54O)C[C@@H]2OC)O[C@@H](C)[C@@H]1O [Doramectin],Kd,[4],7.04 ± 2.03 µM
"CC(O)C(=O)O.CCOc1ccc2nc3cc(N)ccc3c(N)c2c1 (racemic) [RIVANOL, 6,9-Diamino-2-ethoxyacridine-DL-lactate monohydrate]",Kd,[1],0.00246 ± 0.00041 µM
same,EC50,"[2]; Plasmodium falciparum, 3D7, Erythrocyte, Table 8, human RBC, P. falciparum 3D7, read-out: EC50 in RBC infection",0.019 µg/mL and 55.3 nM
same,concentration that completely inhibits P. falciparum infection of human RBCs,"[2]; human RBC, monohydrate",100 ng/mL and 291.1 nM
same,Blocking of 2-6SLN binding,[3],87.6% ± 9.7
Neu5Ac-α-(2-6)-Gal-β-(1-4)-GlcNAc [α2-6-SLN-Ac],glycan ligand affinity for PfCyRPA,[7],highest affinity ligand
[O-][n+]1ccccc1S [Sodium Pyrithione],Kd,[8],789 µM
same,Kd,"[4]; Table 3, PfCyRPA",122 µM
same,Kd,"[4]; read-out: CyRPA KD, Table 9",122 µM
Milbemycin,Kd,[4],0.967 ± 0.057 µM
"O=S(=O)([O-])[O-].[Zn+2] [Zinc, Zinc sulfate]",Kd,[8],317 µM
same,Kd,"[4]; Table 3, PfCyRPA",546 µM
same,Kd,"[4]; read-out: CyRPA KD, Table 9",546 µM
Zinc Pyrithione,Kd,[8],0.0385 µM
same,EC50 in RBC infection,"[2]; Table 6, human RBC, P. falciparum 3D7, listed as ZnPT",0.163 µg/mL
same,EC50,"[2]; Table 6, human RBC, P. falciparum 3D7, read-out: EC50 in RBC infection",0.513 µM
same,concentration that completely inhibits P. falciparum infection of human RBCs,"[2]; human RBC, listed as ZnPT",500 ng/mL and 1.57 μM
same,Serum concentration of zinc pyrithione,"[9]; Serum 1, Day 1 (before shampoo use)",0.03 μM ±
same,Serum concentration of zinc pyrithione,"[9]; Serum 1, Day 3, topical 1% ZPT shampoo",0.04 μM ±
same,Serum concentration of zinc pyrithione,"[9]; Serum 1, Day 4, topical 1% ZPT shampoo",0.66 μM ±
same,Serum concentration of zinc pyrithione,"[9]; Serum 1, Day 5, topical 1% ZPT shampoo",2.7 μM ±
same,Serum concentration of zinc pyrithione,"[9]; Serum 1, Day 10, topical 1% ZPT shampoo",−0.07 μM ±
same,Serum concentration of zinc pyrithione,"[9]; Serum 2, Day 1 (before shampoo use)",0.02 μM ±
same,Serum concentration of zinc pyrithione,"[9]; Serum 2, Day 3, topical 1% ZPT shampoo",0.88 μM ±
same,Serum concentration of zinc pyrithione,"[9]; Serum 2, Day 4, topical 1% ZPT shampoo",1.8 μM ±
same,Serum concentration of zinc pyrithione,"[9]; Serum 2, Day 5, topical 1% ZPT shampoo",4.3 μM ±
same,Serum concentration of zinc pyrithione,"[9]; Serum 2, Day 10, topical 1% ZPT shampoo",0.33 μM ±
same,Serum concentration of zinc pyrithione,"[9]; Serum 3, Day 1 (before shampoo use)",0.08 μM ±
same,Serum concentration of zinc pyrithione,"[9]; Serum 3, Day 3, topical 1% ZPT shampoo",0.24 μM ±
same,Serum concentration of zinc pyrithione,"[9]; Serum 3, Day 4, topical 1% ZPT shampoo",0.84 μM ±
same,Serum concentration of zinc pyrithione,"[9]; Serum 3, Day 5, topical 1% ZPT shampoo",1.6 μM ±
same,Serum concentration of zinc pyrithione,"[9]; Serum 3, Day 10, topical 1% ZPT shampoo",1.0 μM ±
same,Serum concentration of zinc pyrithione,"[9]; Serum 4, Day 1 (before shampoo use)",0.03 μM ±
same,Serum concentration of zinc pyrithione,"[9]; Serum 4, Day 3, topical 1% ZPT shampoo",0.81 μM ±
same,Serum concentration of zinc pyrithione,"[9]; Serum 4, Day 4, topical 1% ZPT shampoo",1.0 μM ±
same,Serum concentration of zinc pyrithione,"[9]; Serum 4, Day 5, topical 1% ZPT shampoo",1.5 μM ±
same,Serum concentration of zinc pyrithione,"[9]; Serum 4, Day 10, topical 1% ZPT shampoo",1.2 μM ±
same,Serum concentration of zinc pyrithione,"[9]; Serum 5, Day 1 (before shampoo use)",0.01 μM ±
same,Serum concentration of zinc pyrithione,"[9]; Serum 5, Day 3, topical 1% ZPT shampoo",0.02 μM ±
same,Serum concentration of zinc pyrithione,"[9]; Serum 5, Day 4, topical 1% ZPT shampoo",0.10 μM ±
same,Serum concentration of zinc pyrithione,"[9]; Serum 5, Day 5, topical 1% ZPT shampoo",0.22 μM ±
same,Serum concentration of zinc pyrithione,"[9]; Serum 5, Day 10, topical 1% ZPT shampoo",0.02 μM ±
same,Serum concentration of zinc pyrithione,"[9]; Serum 6, Day 1 (before shampoo use)",0.001 μM ±
same,Serum concentration of zinc pyrithione,"[9]; Serum 6, Day 3, topical 1% ZPT shampoo",0.10 μM ±
same,Serum concentration of zinc pyrithione,"[9]; Serum 6, Day 4, topical 1% ZPT shampoo",0.21 μM ±
same,Serum concentration of zinc pyrithione,"[9]; Serum 6, Day 5, topical 1% ZPT shampoo",0.38 μM ±
same,Serum concentration of zinc pyrithione,"[9]; Serum 6, Day 10, topical 1% ZPT shampoo",0.007 μM ±
same,Serum concentration of zinc pyrithione,"[9]; Serum 7, Day 1 (before shampoo use)",0.01 μM ±
same,Serum concentration of zinc pyrithione,"[9]; Serum 7, Day 3, topical 1% ZPT shampoo",0.84 μM ±
same,Serum concentration of zinc pyrithione,"[9]; Serum 7, Day 4, topical 1% ZPT shampoo",0.96 μM ±
same,Serum concentration of zinc pyrithione,"[9]; Serum 7, Day 5, topical 1% ZPT shampoo",1.5 μM ±
same,Serum concentration of zinc pyrithione,"[9]; Serum 7, Day 10, topical 1% ZPT shampoo",1.2 μM ±
same,Serum concentration of zinc pyrithione,"[9]; Serum 8, Day 1 (before shampoo use)",0.02 μM ±
same,Serum concentration of zinc pyrithione,"[9]; Serum 8, Day 3, topical 1% ZPT shampoo",0.02 μM ±
same,Serum concentration of zinc pyrithione,"[9]; Serum 8, Day 4, topical 1% ZPT shampoo",0.09 μM ±
same,Serum concentration of zinc pyrithione,"[9]; Serum 8, Day 5, topical 1% ZPT shampoo",0.26 μM ±
same,Serum concentration of zinc pyrithione,"[9]; Serum 8, Day 10, topical 1% ZPT shampoo",0.11 μM ±
same,Serum concentration of zinc pyrithione,"[9]; Serum 9, Day 1 (before shampoo use)",0.04 μM ±
same,Serum concentration of zinc pyrithione,"[9]; Serum 9, Day 3, topical 1% ZPT shampoo",0.22 μM ±
same,Serum concentration of zinc pyrithione,"[9]; Serum 9, Day 4, topical 1% ZPT shampoo",0.30 μM ±
same,Serum concentration of zinc pyrithione,"[9]; Serum 9, Day 5, topical 1% ZPT shampoo",0.49 μM ±
same,Serum concentration of zinc pyrithione,"[9]; Serum 9, Day 10, topical 1% ZPT shampoo",0.14 μM ±
same,Serum concentration of zinc pyrithione,"[9]; Serum 10, Day 1 (before shampoo use)",0.004 μM ±
same,Serum concentration of zinc pyrithione,"[9]; Serum 10, Day 3, topical 1% ZPT shampoo",0.15 μM ±
same,Serum concentration of zinc pyrithione,"[9]; Serum 10, Day 4, topical 1% ZPT shampoo",1.1 μM ±
same,Serum concentration of zinc pyrithione,"[9]; Serum 10, Day 5, topical 1% ZPT shampoo",1.5 μM ±
same,Serum concentration of zinc pyrithione,"[9]; Serum 10, Day 10, topical 1% ZPT shampoo",0.98 μM ±
same,day of the highest serum concentration of ZnPT,[9]; day after three consecutive days of topical treatment,5 days
same,Kd,[5],0.0508 ± 0.00291 µM
same,Serum concentration at the point of testing,[10],< 163 ng/mL
same,Blocking of 2-6SLN binding,[3],98.2% ± 3.4
same,Kd,[4],0.000833 ± 0.000192 µM
same,affinity of interaction with PfCyRPA,[4],high affinity interaction
same,Kd,"[4]; Table 3, PfCyRPA",0.000833 µM
same,Kd,"[4]; read-out: CyRPA KD, Table 9",0.000833 µM
CCC(C)(C)C(=O)O[C@H]1C[C@@H](C)C=C2C=C[C@H](C)[C@H](CC[C@@H]3C[C@@H](O)CC(=O)O3)[C@H]21 [Simvastatin],Kd,[1],0.0314 ± 0.00224 µM
COc1ccc(CCC(=O)c2c(O)cc(O[C@@H]3O[C@H](CO)[C@@H](O)[C@H](O)[C@H]3O[C@@H]3O[C@@H](C)[C@H](O)[C@@H](O)[C@H]3O)cc2O)cc1O [Neohesperidin dihydrochalcone],Kd,[1],0.0246 ± 0.00145 µM
Emamectin,Kd,[4],> 100 µM
